The values below come from patent US4281121A, “1,3,4-Thiadiazole-2-carboxylic acid derivatives, process for making the same and fungicidal and nematocidal compositions containing same” (Schering Aktiengesellschaft, priority 1978, dated 1981).

The test system of assay [1] is Botrytis cinerea. Nature of the assay: Prophylactic leaf treatment of tomato plants against Botrytis cinerea. Format: in vivo. The settings on record: concentration of 0.025 of the active agent (unit not given).
The subject of assay [2] is Helminthosporium gramineum. Nature of the assay: Seed treatment in open field tests for infestation by Helminthosporium gramineum (barley). It is filed as in vivo. As to the method: Seed treatment in open field tests for infestation by Helminthosporium gramineum
The active agents were used in the form of pulverulent compositions. After about 8 months in case of winter barley and after about 3 months in case of summer barley the infested plants were counted and the activity was calculated by the formula [formula]

For assay [3], the system named is Tilletia caries. Kind of assay: Seed treatment in open field tests regarding infestation by Tilletia caries (oats). Format: in vivo.
For another assay, the system named is Septoria nodorum. Nature of the assay: Treatment of oat seeds against Septoria nodorum. The settings on record: 4 weeks. It is filed as in vivo. As to the method:
Effects of the treatment of oat seeds against Septoria nodorum
They were then seeded on a moist substrate for germination. As a control untreated seeds were likewise seeded. At about 6° C. the seed was incubated in an air-conditioned chamber until after 4 weeks the proportion of diseased seeds could be determined and the activity of the fungicidal compounds was calculated on the basis of the following formula: [formula]
The active agents were applied in the form of 20% concentration pulverulent compositions.

A further assay has as its system Ustilago avenae. Kind of assay: Oat seed treatment for Ustilago avenae. It is filed as in vivo. The settings on record: 10 weeks.
A further assay deals with Venturia inaequalis. Kind of assay: Prophylactic leaf treatment of apples in open field test against Venturia inaequalis. It is filed as in vivo. The settings on record: 3 weeks.
The next assay has as its system Piricularia oryzae. It is filed as in vivo. Conditions: 5 days.
The test system of a further assay is Pythium ultimum. Kind of assay: Threshold concentration test for use of the compounds against Pythium ultimum (infested soil, garden peas). Format: in vivo. Also noted: key to root evaluation (1-4): 4: white roots without fungous necrosis; 3: white roots, minor fungous necrosis; 2: brown roots, already more pronounced fungous necrosis; 1: heavy fungous necrosis, roots rotted. The settings on record: for root evaluation (1-4): 3 weeks; for number of sound peas: 20 grains per dish, 3 weeks at 20-24° C. The essentials:
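Garden pea seeds, 20 per dish, went straight into Pythium ultimum-infested soil into which 20% pulverulent formulations had been uniformly blended. Sound plants counted and roots rated 1–4 after three weeks of hothouse growth at 20–24 °C.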

The next assay relates to Fusarium nivale. Nature of the assay: Treatment of rye seeds against Fusarium nivale. Format: in vivo. The settings on record: 100 g/100 kg; about 4 weeks. As to the method: Treatment of rye seeds against Fusarium nivale
Rye seeds with a natural infestation by Fusarium nivale were seeded in earth filled pots and left for germination at about 6° C. Part of the seeds was treated before seeding with the active agents as appears from the subsequent table and part was untreated. After emergence of the seedlings the plants were illuminated with artificial light for 12 hours each day. After about 4 weeks the degree of infestation was determined in percentages. The fungicidal activity was calculated on the basis of the following formula: [formula]
The active agents were used in the form of 20% concentration compositions.

The subject of assay [4] is Tilletia caries. Nature of the assay: Treatment of oat seeds infested with Tilletia caries (spore germination). Format: in vivo.
Assay [5] deals with Fusarium avenaceum. Kind of assay: Threshold concentration test in case of Fusarium avenaceum (infested soil, garden peas). Format: in vivo. Conditions: for number of sound peas: 20 grains per dish, 18 days at 20-24° C.; for root evaluation (1-4): 18 days. The essentials:
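Soil heavily infested with Fusarium avenaceum was mixed uniformly with a 20% powder formulation of active agent, then sown immediately with 20 garden pea seeds ('Wunder von Kelvedon') per dish. After 18 days in a greenhouse at 20° to 24° C., sound plants were counted and roots scored on a 1–4 scale.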

The subject of a further assay is Alternaria solani. Kind of assay: Inhibition of fungus in a nutrient solution: Alternaria solani.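 Note: 0 means no fungus growth and higher grades mean more surface covered.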 Format: cell-based. Conditions: 6 days at 21-23° C.
Assay [6] deals with Fusarium avenaceum. Kind of assay: Inhibition of fungus in a nutrient solution: Fusarium avenaceum.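 Note: 0 means no fungus growth and higher grades mean more surface covered.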 Format: cell-based. The settings on record: 6 days at 21-23° C. The essentials:
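Grape juice/water (1:1) nutrient solution mixed with powdered test agent, then inoculated with conidia. Surface fungal growth scored on a 0–5 scale after 6 days at 21–23 °C.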

Assay [7] deals with Botrytis cinerea. Nature of the assay: Inhibition of fungus in a nutrient solution: Botrytis cinerea.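 Note: 0 means no fungus growth and higher grades mean more surface covered.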 Format: cell-based. The settings on record: 6 days at 21-23° C.
The test system of assay [8] is root gall nematodes (Meloidogyne sp.). Nature of the assay: Threshold concentration test with root gall nematodes (cucumber, infested soil). It is filed as in vivo. The settings on record: 28 days at 24-27° C. The source says:
Threshold concentration test with root gall nematodes (Meloidogyne sp.)
20% concentration pulverulent active agents as listed in the table below were mixed in a uniform manner with a soil which had been heavily infested by root gall nematodes. After waiting for 3 days the treated soil was placed in two clay dishes of a capacity of 0.5 liter. 10 grain of cucumber seeds of the type "Guntruud" were placed into each dish.
Thereafter, the contents of the dishes were permitted to develop at a temperature of 24° to 27° C. for a time of 28 days in a hothouse. The cucumber roots were then washed out and were examined in a water bath regarding nematode infestation. The reduction of the infestation by the active agents as compared with untreated control material was determined in percentages.
The nematocidal activity was calculated by the formula
A=the infestation in the untreated control material and
B=the infestation after treatment.

The next assay concerns Penicillium digitatum. Kind of assay: Inhibition of fungus in a nutrient solution: Penicillium digitatum.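 Note: 0 means no fungus growth and higher grades mean more surface covered.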 Format: cell-based. Conditions: 6 days at 21-23° C.
[9] abbreviates: summer barley, 25 g active agent/100 kg barley, about 3 months.
The mark [10] stands for this setting: summer barley, 50 g active agent/100 kg barley, about 3 months.
[11] abbreviates: summer barley, 100 g active agent/100 kg barley, about 3 months.
[12] abbreviates: winter barley, 25 g active agent/100 kg barley, about 8 months.
Setting [13] is: winter barley, 50 g active agent/100 kg barley, about 8 months.
Where [14] appears, read: winter barley, 75 g active agent/100 kg barley, about 8 months.
[15] abbreviates: concentration of active agent 0.1 (percentages).
Setting [16] is: 20 g active agent per 100 kg, about 5 weeks.
[17] abbreviates: 50 g active agent per 100 kg, about 5 weeks.

Read-outs that look alike come from different tables or passages of the source.

Consider `CNC(=O)c1nnc(S(C)(=O)=O)s1` [5-methylsulfonyl-1,3,4-thiadiazole-2-carboxylic acid methylamide], for which the “% activity” value is on record as 78% in the assay on Botrytis cinerea [1]; 93% in assay [2] (setting [9]); 100% in assay [2] (setting [10]); 100% in assay [2] (setting [11]); 99.5% in assay [2] (setting [12]); 99.5% in [2] (setting [13]). The “% activity” value in assay [2] (setting [14]) stood at 100%; in the assay on Tilletia caries [3] (summer oats, 50 g active agent/100 kg, about 4 months), 100%; with Septoria nodorum (50 g active agent/100 kg seeds), 93%; in the assay on Ustilago avenae (100 g active agent/100 kg), 90%; with Venturia inaequalis (concentration of active agent 0.005 (in gram)), 90%; in the assay on Venturia inaequalis (concentration of active agent 0.025 (in gram)), 92%. For the same molecule, the “% activity” value with Piricularia oryzae (concentration of active agent 0.02 (percentages)) is given as 65%; in the assay on Piricularia oryzae (setting [15]) it was 91%; with Helminthosporium gram (setting [16]), 99%; with Helminthosporium gram (setting [17]), 100%; in the assay on Fusarium nivale it was 100%. Further, the “root evaluation (1-4)” value in the assay on Pythium ultimum (20 mg/l soil), with Pythium ultimum (40 mg/l soil) and in the assay on Pythium ultimum (80 mg/l soil) was 4 throughout. Moreover, the “number of sound peas” value in the assay on Pythium ultimum (20 mg/l soil) came out at 20; in the assay with Pythium ultimum (40 mg/l soil), 18; in the assay with Pythium ultimum (80 mg/l soil), 18.

With “Methoxyethyl-Hg--silicate [reference compound]”, the “% activity” value in assay [2] (summer barley, 5.2 g active agent/100 kg barley) was determined as 99.8%; in assay [2] (summer barley, 10.4 g active agent/100 kg barley), 100%; in assay [2] (winter barley, 2.6 g active agent/100 kg barley), 99.4%; in assay [2] (winter barley, 5.2 g active agent/100 kg barley), 100%; in the assay with Tilletia caries [3] (summer oats, 2.6 g active agent/100 kg, about 4 months), 99%; with Tilletia caries [3] (winter oats, 5.3 g active agent/100 kg, about 9 months) it was 99%. Further, the “% activity” value in the assay with Tilletia caries [4] (1.3 g active agent per 100 kg) came out at 90%; in the assay with Tilletia caries [4] (2.6 g active agent per 100 kg), 100%; in the assay on Septoria nodorum (1.3 g active agent/100 kg seeds), 86%; in the assay with Ustilago avenae (16 g active agent/100 kg) it was 66%; in the assay with Helminthosporium gram (0.2 g active agent per 100 kg) it was 63%; in the assay on Helminthosporium gram (0.5 g active agent per 100 kg) it was 91%. In the assay with Helminthosporium gram (1.0 g active agent per 100 kg), the “% activity” value worked out at 98%.

Turning to `CS(=O)(=O)c1nnc(C(N)=O)s1` [5-methylsulfonyl-1,3,4-thiadiazole-2-carboxamide], the “% activity” value is on record as 95% in assay [2] (setting [9]); 100% in assay [2] (setting [10]); 100% in assay [2] (setting [11]); 90% in assay [2] (setting [12]); 96% in [2] (setting [13]); 100% in [2] (setting [14]). Further, the “% activity” value in assay [2] (winter barley, 100 g active agent/100 kg barley, about 8 months) was 100%; in the assay with Tilletia caries [3] (winter oats, 25 g active agent/100 kg, about 9 months), 100%; in the assay with Tilletia caries [3] (winter oats, 50 g active agent/100 kg, about 9 months) it was 100%; in the assay with Tilletia caries [3] (winter oats, 100 g active agent/100 kg, about 9 months), 100%; in the assay with Septoria nodorum (50 g active agent/100 kg seeds), 91%; in the assay with Ustilago avenae (100 g active agent/100 kg) it was 84%. For the same molecule, the “% activity” value in the assay on Ustilago avenae (150 g active agent/100 kg) is 90%; in the assay on Piricularia oryzae (setting [15]), 96%; in the assay on Helminthosporium gram (10 g active agent per 100 kg, about 5 weeks), 95%; in the assay with Helminthosporium gram (setting [16]), 100%; with Helminthosporium gram (setting [17]), 100%; with Fusarium nivale it was 99%. The “root evaluation (1-4)” value in the assay on Pythium ultimum (20 mg/l soil), with Pythium ultimum (40 mg/l soil) and in the assay with Pythium ultimum (80 mg/l soil) was 4 throughout. Besides, the “number of sound peas” value in the assay on Pythium ultimum (20 mg/l soil) amounted to 16; with Pythium ultimum (40 mg/l soil), 18; with Pythium ultimum (80 mg/l soil) it was 20.

With `CS(=O)(=O)c1nnc(C#N)s1` [5-methylsulfonyl-1,3,4-thiadiazole-2-carbonitrile], the “number of sound peas” value in the assay with Fusarium avenaceum [5] (25 mg/l soil) is on record as 18; in the assay with Fusarium avenaceum [5] (50 mg/l soil), 17; with Fusarium avenaceum [5] (100 mg/l soil), 19; in the assay with Pythium ultimum (20 mg/l soil) it was 17; in the assay with Pythium ultimum (40 mg/l soil), 16; in the assay on Pythium ultimum (80 mg/l soil) it was 20. The “root evaluation (1-4)” value in the assay on Fusarium avenaceum [5] (25 mg/l soil) is listed as 4; in the assay on Fusarium avenaceum [5] (50 mg/l soil), 4; with Fusarium avenaceum [5] (100 mg/l soil), 4; with Pythium ultimum (20 mg/l soil), 3; in the assay with Pythium ultimum (40 mg/l soil) it was 4; in the assay on Pythium ultimum (80 mg/l soil), 4. Also, the “fungus development on the surface of the nutrient solution (0-5)” value is 0 with Alternaria solani (0.002%); 0 in the assay with Alternaria solani (0.004%); 0 with Fusarium avenaceum [6] (0.002%); 0 in the assay with Fusarium avenaceum [6] (0.004%); 1 in the assay on Botrytis cinerea [7] (0.002%); 0 with Botrytis cinerea [7] (0.004%). The entries for the “fungus development on the surface of the nutrient solution (0-5)” value in the assay with Penicillium digitatum (0.002%) and with Penicillium digitatum (0.004%) were 1 and 0, respectively. Also, the “Percentage reduction of infestation” value in assay [8] (50 mg per liter soil) was determined as 71%; in assay [8] (100 mg per liter soil) it was 88%; in assay [8] (200 mg per liter soil) it was 96%.
